Results published in patent US10562922B2, “Silicon based cyclic compounds and pharmaceutical compositions for treating malaria and toxoplasmosis” (Council of Scientific and Industrial Research, priority 2016, dated 2020).
Values joined by “and” are separate entries in the source; they are usually repeats but may differ in a detail not shown here. Equal values may be shown once. Read-outs that look alike come from different tables or passages of the source.

What was measured:
T. gondii = assay: Anti-toxoplasma screening (TgLuc+ luciferase growth assay in HFF host cells); assay type: cell-based, Toxoplasma gondii
Text: b) Anti-toxoplasma Screening:
For screening bioactivity of test molecules against T. gondii, a transgenic line of the parasite (TgLuc+) expressing the luciferase gene is used [Edwin Kamau, Tracy Meehan, Mark D. Lavine, Gustavo Arrizabalaga, Gabriela Mustata Wilson and Jon Boyle. A Novel Benzodioxole-Containing Inhibitor of Toxoplasmagondii Growth Alters the Parasite Cell Cycle. Antimicrob Agents Chemother. 2011, 55(12): 5438-5451]. The parental parasite used to generate the TgLuc+ strain is aType I (RH) virulent strain (ATCC reference 50174D), which can also be used for in vivo studies in mice, if needed. The tachyzoite stage of the parasites are routinely cultured in the laboratory using standard protocols [Roos D S, Donald R G, Morrissette N S, Moulton A L. Molecular tools for genetic dissection of the protozoan parasite Toxoplasma gondii. Methods Cell Biol. 1994, 45:27-63]. In brief, a confluent monolayer of Human Foreskin Fibroblast (HFF; ATCC reference SCRS-1041) cells in culture are used as the host cells for infection with tachyzoitestage T. gondii. The culture media used to grow parasites is standard complete DMEM (Gibco BRL, USA) containing glucose (5.5 mM), glutamine (2 mM), Hepes (25 mM) and 1% dialyzed bovine fetal calf serum (Gibco BRL, USA). For bioactivity assays, the HFF cells are grown in 96 well plates and each well is infected with 1×10^4TgLuc+parasitesin the presence of 10 μM test molecules (in primary screens) in a total volume of 200 μL. After 2 days of incubation and growth in a 37° C. incubator maintaining 5% CO2, the 96 well plates are processed for luminescence measurements using the reagents in the luciferase assay kit (Promega, USA). The results are corrected for background (uninfected HFF cultures), and normalized against both positive (untreated parasite cultures) and negative (standard drug treated parasite cultures) to identify those molecules with % inhibition values >80% for further dose analysis and IC50 determination using a dilution series ranging from 10 μM to 1 nM. Data from the preliminary screen (@ 10 μM only) is shown in Table-1 and dose response experiments are underway.

[1] = system: Plasmodium falciparum (3D7); assay: Anti-malarial screening (SybrGreen parasite growth assay); assay type: cell-based; conditions: for inhibition at 10 µM: read-out: % inhibition (P. falciparum)
Method: a) Anti-malarial Screening:
Plasmodium falciparum (3D7; Malaria Research and Reference Reagent Resource Center ID NO: MRA-102) is cultured in the laboratory as per standard protocols [Moll K., Ljungström I., Perlmann H., Scherf A., and Wahlgren M., (Editors). Methods in Malaria Research. Joint publication by Malaria Research and Reference Reagent Resource Center (MR4), ATCC, USA and BioMalPar, EU. 2008]. Briefly, P. falciparum is cultured using 2% hematocrit washed RBCs, separated from freshly collected human blood, in RPMI media containing glutamine, sodium bicarbonate and antibiotics. Parasites are routinely synchronized using 5% sorbitol treatment. Anti-malarial screens are carried out in two stages: 1) a primary screen at a fixed concentration of 10 μM to find out % inhibition of growth; and 2) a dose assay for finding out the IC50 for hits identified from the primary screen. Assays are setup as follows. 200 μls of the diluted parasite culture (2% parasitemia and 2% hematocrit; at late ring stage), is added to each well in a 96 well plate pre-seeded with the compound of interest at the required concentration of 10 μM. The master stocks and dilutions of the compounds are prepared in cell culture grade DMSO. NOTE: DMSO only treatment control is done and the results are used for normalizing the data obtained from compound treatment. All compounds are plated in triplicates. Each 96 well plate also includes negative controls (compound untreated culture) and positive controls (standard anti-malarial treated culture). Standard anti-malarials used are chloroquine, artemisinine and atovaquone, each at 1 μM concentration. After plating, the culture is incubated in standard growth condition for 60 hours, after which the cultures are processed for testing the effect of compounds on parasite growth using SybrGreen staining and fluorescence measurements at […] emmission following excitation at 498 nm. Since only parasites have DNA (as RBCs are devoid of nucleus), the SybrGreen signal is a direct indictor of parasitemia in respective samples. Results are used to quantifying relative parasite growth (or conversely % inhibition of growth) in untreated, standard anti-malarial treated and test molecule treated P. falciparum cultures. […] Data from the preliminary screen (@ 10 μM only) along with data from the dose response experiment and IC50 values for the selected molecules are tabulated in Table-2.

[2] = Toxoplasma gondii, 48 h; primary screen at 10 μM, TgLuc+ tachyzoites in HFF cells, 2 days incubation
[3] = Plasmodium falciparum, 3D7, dose response, dilution series 10 μM to 1 nM, 3D7, read-out: IC50(P. falciparum)
[4] = Plasmodium falciparum, primary screen at 10 μM, 3D7, 60 hours incubation
[5] = dose response, dilution series 10 μM to 1 nM, 3D7, read-out: IC50(P. falciparum)
[6] = Plasmodium falciparum, 3D7, 60 h
[7] = Plasmodium falciparum, 3D7, read-out: IC50(P. falciparum, μM), dose response, dilution series 10 μM to 1 nM, 3D7
[8] = primary screen at 10 μM, TgLuc+ tachyzoites in HFF cells, 2 days incubation
[9] = primary screen at 10 μM, 3D7, 60 hours incubation

| Compound | inhibition at 10 µM (T. gondii; [2]) [%] | IC50 [1, 3] [µM] | inhibition at 10 µM [1, 4] [%] | IC50 [1, 5] | further results |
| --- | --- | --- | --- | --- | --- |
| C[N+]1(Cc2ccccc2)CC[Si](c2ccccc2)(c2ccccc2)CC1 [NDS 100861] | 36 | 1.64 | 115 | 2.39 µM | – |
| C[N+]1(C)CC[Si](c2ccccc2)(c2ccccc2)CC1 [NDS 101044, 1,1-dimethyl-4,4-diphenyl-1,4-azasilinan-1-ium iodide] | 0 | 2.46 | 63.5 | – | – |
| c1ccc(CN2CC[Si](c3ccccc3)(c3ccccc3)CC2)cc1 [NDS 100860] | 99.4 | 1.75 | 112 | 2.3 µM | IC50 (T. gondii; read-out: IC50 (T gondii); dose response, dilution series 10 μM to 1 nM): 5030 nM and 2090 nM |
| C=CC[N+]1(C)CC[Si](c2ccccc2)(c2ccccc2)CC1 [NDS 101039, 1-allyl-1-methyl-4,4-diphenyl-1,4-azasilinan-1-ium bromide] | 17 | – | – | – | inhibition at 10 µM [1, 6]: 76.2%; IC50 [1, 7]: 7.11 µM |
| 1,1-dibenzyl-4,4-diphenyl-1λ4,4-azasilinan-2-ylium bromide [NDS 100953] | – | – | – | 1.69 µM | % inhibition (T. gondii) (T. gondii; [8]): 39%; % inhibition (P. falciparum) [1, 9]: 94.96% |
| CC(C)=CC[N+]1(CC=C(C)C)CC[Si](c2ccccc2)(c2ccccc2)CC1 [NDS 101015, 1,1-bis(3-methylbut-2-en-1-yl)-4,4-diphenyl-1,4-azasilinan-1-ium bromide] | 20 | – | – | – | inhibition at 10 µM [1, 6]: 103%; IC50 [1, 7]: 0.48 µM; IC50 ([1]; read-out: IC50(P. falciparum), dose response, dilution series 10 μM to 1 nM, 3D7): 0.29 µM |
| 1-benzyl-1-ethyl-4,4-diphenyl-1λ4,4-azasilinan-2-ylium iodide [NDS 100952] | – | – | – | 0.33 µM | IC50 (T. gondii; dose response, dilution series 10 μM to 1 nM; read-out: IC50 (T gondii)): 1240 nM; % inhibition (T. gondii) (T. gondii; [8]): 72.06%; % inhibition (P. falciparum) [1, 9]: 104.01% |
| c1ccc([Si]2(c3ccccc3)CC[N+]3(CCCCC3)CC2)cc1 [NDS 101017] | 0 | – | 87.1 | 2.07 µM and 4.98 µM | – |
